Measured values published in US20230134760A1, “CAR AND NRF2 DUAL ACTIVATOR AGENTS FOR CYCLOPHOSPHAMIDE-BASED AND DOXORUBICIN-BASED TREATMENTS OF CANCER” (priority 2020, published 2023).

Key:
HO-1 [1] = assay: HO-1 expression in H9c2 cardiomyocytes (RT-PCR, Western blot); type: cell-based, rat
Protocol: Immortalized triple negative breast cancer cell lines MDA-MB-231 and BT549 were obtained from ATCC (Rockville, Md.). Additionally, the h9c2 cell line was purchased from ATCC (Rockville, Md.). […] Human iPSC-derived cardiomyocytes were maintained in Mtesr plus and supplemented according to protocol. These cells were treated for 2 hrs or an overnight as indicated. Following a 2 hr pretreatment, cells were co-treated with DOX at indicated concentrations for 6 or 22 hours. Following the overnight treatments, RNA or protein was isolated. HPH were seeded in collagen-coated 24 well plates and pretreated for 24 hrs. BT549 were seeded on inverted coverslips. After a 24 hr pretreatment, hepatocytes were co-administered as indicated and coverslips were inserted. The cell lines were used for less than 60 passages. After 24 h treatment, HPH, BT549, MDA-MB-231, and H9c2 cells were washed and a phenol-chloroform extraction was used to isolate total RNA with the TRIzol reagent (ThermoFisher, Rockford, Ill.). Reverse transcription was performed on extracted RNA (1 μg) to produce cDNA using the High Capacity cDNA Archive kit according to manufacturer's instructions (Applied Biosystems, Foster, Calif.). PCR was performed on an ABI StepOnePlus Real-Time PCR system (Applied Biosystems) using Fast SYBR Green Master Mix (Thermofisher, Rockford, Ill.) to determine gene expression changes. Primer sequences for CYP2B6, CYP3A4, HO-1, and glyceraldehyde-3-phosphate dehydrogenase (GAPDH) are: CYP2B6, [NT] ID NO: 1) and [NT] ID NO: 2); CYP3A4, [NT] ID NO: 3) and [NT] ID NO: 4); HO-1 [NT] ID NO: 5) and [NT] ID NO: 6) GAPDH, [NT] ID NO: 7) and [NT] ID NO: 8). Quantification of expression changes was done by the 2^ΔΔCt method, normalizing to GAPDH as the housekeeping gene and determining the fold change compared to control values (n=3). Protein was harvested using cell lysis buffer (Cell Signaling Technology, Danvers, Mass.) with a complete protease inhibitor cocktail (Roche, Mannheim, Germany) prior to homogenizing via sonification. […]

HO-1 [2] = assay: HO-1 expression in human iPSC-derived cardiomyocytes; type: cell-based; settings: human iPSC-derived cardiomyocytes, 1, 5, 10 μM
Protocol: Immortalized triple negative breast cancer cell lines MDA-MB-231 and BT549 were obtained from ATCC (Rockville, Md.). Additionally, the h9c2 cell line was purchased from ATCC (Rockville, Md.). […] Human iPSC-derived cardiomyocytes were maintained in Mtesr plus and supplemented according to protocol. These cells were treated for 2 hrs or an overnight as indicated. Following a 2 hr pretreatment, cells were co-treated with DOX at indicated concentrations for 6 or 22 hours. Following the overnight treatments, RNA or protein was isolated. HPH were seeded in collagen-coated 24 well plates and pretreated for 24 hrs. BT549 were seeded on inverted coverslips. After a 24 hr pretreatment, hepatocytes were co-administered as indicated and coverslips were inserted. The cell lines were used for less than 60 passages. After 24 h treatment, HPH, BT549, MDA-MB-231, and H9c2 cells were washed and a phenol-chloroform extraction was used to isolate total RNA with the TRIzol reagent (ThermoFisher, Rockford, Ill.). Reverse transcription was performed on extracted RNA (1 μg) to produce cDNA using the High Capacity cDNA Archive kit according to manufacturer's instructions (Applied Biosystems, Foster, Calif.). […] Quantification of expression changes was done by the 2^ΔΔCt method, normalizing to GAPDH as the housekeeping gene and determining the fold change compared to control values (n=3).

MDA-MB-231 cells [3] = assay: Oxidative stress imaging (DFDA) in MDA-MB-231 cells; type: cell-based; settings: MDA-MB-231, DL7076 5 μM + DOX
MDA-MB-231 cells [4] = assay: Cell viability assay, DOX-induced toxicity in MDA-MB-231 cells; type: cell-based; settings: MDA-MB-231, DOX 2.5 μM
Protocol: Immortalized triple negative breast cancer cell lines MDA-MB-231 and BT549 were obtained from ATCC (Rockville, Md.). Additionally, the h9c2 cell line was purchased from ATCC (Rockville, Md.). […] Human iPSC-derived cardiomyocytes were maintained in Mtesr plus and supplemented according to protocol. These cells were treated for 2 hrs or an overnight as indicated. Following a 2 hr pretreatment, cells were co-treated with DOX at indicated concentrations for 6 or 22 hours. Following the overnight treatments, RNA or protein was isolated. HPH were seeded in collagen-coated 24 well plates and pretreated for 24 hrs. BT549 were seeded on inverted coverslips. After a 24 hr pretreatment, hepatocytes were co-administered as indicated and coverslips were inserted. The cell lines were used for less than 60 passages. H9c2 cells were seeded 0.8×10^5 in 24-well plates. […] A Cell Counting Kit-8 (Enzo) assay was carried out. Cell viability was described as a percent of vehicle control (0.1% DMSO).

hCAR = assay: Ad/EYFP-hCAR translocation assay in HPH; type: cell-based, human; settings: Ad-EYFP-hCAR-infected HPH; DL7076 10 μM, PB 1 mM
Protocol: HPH were seeded on collagen-coated 12-well plates. 24 hours after seeding, HPH were infected with Ad/EYFP-hCAR at a concentration of 5 μL/mL of media and incubated overnight. HPH infected cells were treated with a vehicle control (DMSO 0.01%), a positive control (1 mM PB), and compounds of interest for 8 h. Fluorescence was viewed using the YFP channel (Nikon Eclipse Ti) and quantified by identifying the number of total cells expressing EYFP-hCAR over EYFP-hCAR present in the nucleus. Representative images are shown, and quantitative data represents the mean±SD of 3 individual images for each treatment group.

**Q.** With O=C(NCCN=C=S)c1c(-c2ccc3ccccc3c2)nc2sccn12 [DL7076, N-(2-Isothiocyanatoethyl)-6-(naphthalen-2-yl)imidazo[2,1-b]thiazole-5-carboxamide] as the compound, how does the “HO-1 mRNA induction” value (HO-1 [1]; H9c2, 10 μM, 24 hours, vs vehicle control) read?
**A.** 3- to 3.5 fold

**Q.** And the HO-1 protein induction (HO-1 [1]; H9c2, Western blot)?
**A.** robust induction in the expression of HO-1 was confirmed at a protein level

**Q.** And the “HO-1 protein expression in the presence of DOX” value (HO-1 [1]; H9c2, pretreatment, DOX 2.5 μM)?
**A.** concentration dependent protection in the expression of HO-1

**Q.** And the HO-1 expression (HO-1 [2])?
**A.** concentration-dependently induced

**Q.** And the ROS with cotreatment (MDA-MB-231 cells [3])?
**A.** significant ROS without reduction

**Q.** What about the “reversal of DOX-induced toxicity (viability)” value (MDA-MB-231 cells [4]) of the same compound?
**A.** this efficient reversal was not shown

**Q.** What about the EYFP-hCAR nuclear translocation (hCAR) of the same compound?
**A.** triggered hCAR nuclear translocation
